Data taken from EP2050748A1, “Novel fused pyrimidines” (Bayer Schering Pharma Aktiengesellschaft, priority 2007, dated 2009).

How the values were obtained:
[1] = test system: phosphorylated Akt protein (Ser473); assay: Cellular PI3K / Akt pathway assay (phospho-Akt ELISA); type: cell-based; conditions: Homo sapiens; MCF7 cells, stimulated with ß-Heregulin (20ng/ml), compound incubated 48h, phospho-Akt1 (Ser473) ELISA
Experimental: In order to study the cellular activity of the compounds according to the present invention, an Enzyme Linked Immunosorbent Assay (ELISA)-based assay has been used specific phospho-AKT. The assay is based on a Sandwich ELISA kit (PathScan™ Phospho-Akt1 (Ser473); Cell Signaling, USA; #7160).
The ELISA Kit detects endogenous levels of phosphorylated Akt protein. A phospho-Akt (Ser473) antibody (Cell Signaling, USA; #9271) has been coated onto the microwells. After incubation with cell lysates, the coated antibody captures the phosphorylated Akt protein. Following extensive washing, Akt1 monoclonal antibody (Cell Signaling, USA; #2967) is added to detect the captured phospho-Akt1 protein. HRP-linked anti-mouse antibody (HRP: horseradish peroxidase; Cell Signaling, USA; #7076) is then used to recognize the bound detection antibody. HRP substrate (= 3,3',5,5'-tetramethylbenzidine (TMB); Cell Signaling, USA; #7160) is added to develop colour. The magnitude of optical density for this developed color is proportional to the quantity of phosphorylated Akt protein.
MCF7 cells (ATCC HTB-22) are seeded into 96 well fate bottom plates at a density of 10000 cells/well. 24 hours after seeding, the cells are serum starved using low-serum medium (IMEM media including 0,1% charcoal treated FCS (FCS: fetal calf serum)). After 24 hours 1 µl each of the compound dilutions (test compounds were dissolved as 10 mM solutions in dimethylsulfoxide (DMSO) and subsequently diluted) are added into each well of the 96 well plates and incubated for 48h at 37°C in a humidified athmosphere containing 5% CO2. To stimulate Akt phosphorylation, ß-Heregulin (20ng/ml β-HRG) is added in parallel to the compounds. Wells containing unstimulated control cells (no β-Heregulin stimulation) are incubated with or without the diluted compound. Wells containing untreated control cells (no compound) are filled with medium containing 0.5% v:v DMSO and are or are not stimulated with β-Heregulin.
Cells are harvested and lysed with brief sonification in 1x x cell lysis buffer (20mM Tris (pH7.5), 150 mM NaCl, 1 mM ethylene diaminetetraacetate (EDTA), 1 mM ethylene glycolbis(2-aminoethyl)-N,N,N',N'-tetraacetic acid (EGTA), 1vol% Triton X-100, 2.5mM sodium pyrophosphate, 1 mM β-glycerolphosphate, 1 mM Na3VO4, 1 µg/ml leupeptin). The lysate is centrifuged for 10 min. at 4°C and the supernatant is transferred to a new tube. 100 µl of sample diluent (0.1vol% Tween-20, 0.1vol% sodium azide in phosphate buffered saline (PBS)) are added to a microcentrifuge tube and 100 µl of cell lysate are transferred into the tube and vortexed. 100 µl of each diluted cell lysate are added to the appropriate ELISA well, and incubated overnight at 4°C. The plates are washed 4 times with 1 x wash buffer (1 vol% tween-20, 0.33vol% thymol, in PBS). Next 100 µl of detection antibody (Akt1 (2H10) monoclonal detection antibody; Cell Signaling, USA; #2967) are added to each well and incubation continued for 1 h at 37°C. The washing procedure is repeated between each step. 100µl of secondary antibody (anti-mouse IgG HRP-linked antibody; Cell Signaling, USA; #7076) are added to each well and incubated for 30 min. at 37°C. Than, 100µl of TMB substrate (0.05% 3,3',5,5' tetramethylbenzidine, 0.1 % hydrogen peroxide, complex polypeptides in a buffered solution; Cell Signaling, USA; #7160) are added to each well and incubated for 30 min. at 25°C. Finally 100 µl of STOP solution (0.05vol% α and β unsaturated carbonyl compound) are added to each well and the plate are shaked gently. The absorbance is measured at λ=450 nm (Wallac Victor2; Perkin Elmer, USA) within 30 min. after adding the STOP solution. The analysis of the data is performed using a statistical program (Excel; Microsoft, USA). Preferred compounds show an inhibitory activity towards Akt phosphorylation below 10µM.

OvCAR3 cells = assay: Cellular proliferation / Cytotoxicity assay (Alamar Blue); type: cell-based; conditions: Homo sapiens, OVCAR-3, 48h incubation, Alamar Blue (Resazurin) cell viability, read-out: Anti-proliferative / Cytotoxic activity (OvCAR3 cells)
Experimental: The anti-proliferative activity of the compounds as described herein, is evaluated using the OvCAR3, HCT116 and A549 cell lines and the Alamar Blue (Resazurin) cell viability assay (O'Brien et al. Eur J Biochem 267, 5421-5426, 2000). Resazurin is reduced to the fluorescent resorufin by cellular dehydrogenase activity, correlating with viable, proliferating cells. Test compounds are dissolved as 10 mM solutions in DMSO and subsequently diluted. Cells like HCT116 or A549 cells were seeded into 96 well flat bottom plates at a density of 10000 cells/well (OvCAR3 cells), 1000 cells/well (HCT116 cells) or 2000 cells/well (A549 cells) in a volume of 200 µl/well. 24 hours after seeding, 1 µl each of the compound dilutions are added into each well of the 96 well plates. Each compound dilution is tested as at least as duplicates. Wells containing untreated control cells were filled with 200 µl DMEM (Dulbecco's Modified Eagle Medium) containing 0.5vol% v:v DMSO. The cells are then incubated with the substances for 48h at 37°C in a humidified atmosphere containing 5vol% CO2. To determine the viability of the cells, 20 µl of a Resazurin solution (90mg / l) are added. After 4h incubation at 37°C, the fluorescence is measured by extinction at ? = 544 nm and an emission of ? = 590 nm (Wallac Victor2; Perkin Elmer, USA). For the calculation of the cell viability, the emission value from untreated cells is set as 100% viability and the fluorescence intensity of treated cells are set in relation to the values of untreated cells. Viabilities are expressed as % values. The corresponding IC50 values of the compounds for cytotoxic activity are determined from the concentration-effect curves by means of non-linear regression. The analysis of the data is performed using a biostatistical program (GraphPad Prism, USA). Representative IC50 values for anti-proliferative / cytotoxic potency determined in the aforementioned assay follow from the following table, in which the numbers of the compound correspond to the numbers of the examples.

Row | IC50 [1] [nM] | Structure (SMILES) | IC50 (OvCAR3 cells) [nM]
1 | < 1000 | C=Cc1cnc2nc(-c3ccc(CN4CCC(c5n[nH]c(-c6ccccn6)n5)CC4)cc3)c(-c3ccccc3)cn12 [Example 15, 6-phenyl-7-(4-{[4-(5-pyridin-2-yl-1,2,4-triazol-3-yl)piperidin-1-yl]methyl}phenyl)-3-vinylimidazo[1,2-a]pyrimidine] | < 1000
2 | < 1000 | Clc1cnc2nc(-c3ccc(CN4CCC(c5n[nH]c(-c6ccccn6)n5)CC4)cc3)c(-c3ccccc3)cn12 [Example 12, 3-chloro-6-phenyl-7-(4-{[4-(5-pyridin-2-yl-1,2,4-triazol-3-yl)piperidin-1-yl]methyl}phenyl)imidazo[1,2-a]pyrimidine] | < 1000
3 | < 1000 | c1ccc(-c2cn3ccnc3nc2-c2ccc(CN3CCC(c4cc(-c5ccccn5)n[nH]4)CC3)cc2)cc1 [Example 5, 6-phenyl-7-(4-{[4-(3-pyridin-2-yl-pyrazol-5-yl)piperidin-1-yl]methyl}phenyl)imidazo[1,2-a]pyrimidine] | > 1000
4 | < 1000 | c1ccc(-c2cn3ccnc3nc2-c2ccc(CN3CCC(c4nc(-c5ccccn5)n[nH]4)CC3)cc2)cc1 [Example 1, 6-phenyl-7-(4-{[4-(3-pyridin-2-yl-1,2,4-triazol-5-yl)piperidin-1-yl]methyl}phenyl)imidazo[1,2-a]pyrimidine] | > 1000
